The nature of assay [1]: Inhibition of baker's yeast type 1 alpha-glucosidase using p-nitrophenyl-alpha-D-glucopyranoside as substrate incubated for 10 mins prior to substrate challenge for 20 mins by microplate reader analysis. Also noted: species or system Saccharomyces cerevisiae.
The nature of assay [2]: Inhibition of maltase in rat small intestine using maltose as substrate by Lineweaver-Burk plot based secondary replot analysis. Type of assay: tissue-based.
For assay [3], the species on record is Rattus norvegicus. As to the kind of experiment: Competitive inhibition of maltase in rat small intestine using maltose as substrate by Lineweaver-Burk plot analysis.
Assay [4] in a line: Inhibition of type 2 alpha-glucosidase in rat small intestine using maltose as substrate after 10 mins by microplate reader analysis.
For assay [5], the target named is Sucrase-isomaltase, intestinal (Rattus norvegicus) (UniProt P23739). As to the kind of experiment: Inhibition of sucrase in rat small intestine using sucrose as substrate at 1 mg/ml after 40 mins by microplate reader analysis.
Assay [6] deals with Saccharomyces cerevisiae. The assay is described as follows: Inhibition of baker's yeast type 1 alpha-glucosidase using p-nitrophenyl-alpha-D-glucopyranoside as substrate at 10 mg/ml incubated for 10 mins prior to substrate challenge for 20 mins by microplate reader analysis.
Assay [7] addresses Sucrase-isomaltase, intestinal (Rattus norvegicus, UniProt P23739). As to the kind of experiment: Inhibition of sucrase in rat small intestine using sucrose as substrate after 40 mins by microplate reader analysis.
The species named for assay [8] is Rattus norvegicus. The assay is described as follows: Inhibition of type 2 alpha-glucosidase in rat small intestine using maltose as substrate at 1 mg/ml after 10 mins by microplate reader analysis.
Assay [9] has as its system Saccharomyces cerevisiae. The assay is described as follows: Ratio of acarbose IC50 to compound IC50 for baker's yeast type 1 alpha-glucosidase.
Assay [10] is filed under the species Rattus norvegicus. The assay is described as follows: Ratio of acarbose IC50 to compound IC50 for type 2 alpha-glucosidase in rat small intestine.

The source made the active and inactive calls. No cut-off for these calls is given here.

Chain of Sucrase-isomaltase, intestinal (Rattus norvegicus) (P23739 1-1013 limits assumed): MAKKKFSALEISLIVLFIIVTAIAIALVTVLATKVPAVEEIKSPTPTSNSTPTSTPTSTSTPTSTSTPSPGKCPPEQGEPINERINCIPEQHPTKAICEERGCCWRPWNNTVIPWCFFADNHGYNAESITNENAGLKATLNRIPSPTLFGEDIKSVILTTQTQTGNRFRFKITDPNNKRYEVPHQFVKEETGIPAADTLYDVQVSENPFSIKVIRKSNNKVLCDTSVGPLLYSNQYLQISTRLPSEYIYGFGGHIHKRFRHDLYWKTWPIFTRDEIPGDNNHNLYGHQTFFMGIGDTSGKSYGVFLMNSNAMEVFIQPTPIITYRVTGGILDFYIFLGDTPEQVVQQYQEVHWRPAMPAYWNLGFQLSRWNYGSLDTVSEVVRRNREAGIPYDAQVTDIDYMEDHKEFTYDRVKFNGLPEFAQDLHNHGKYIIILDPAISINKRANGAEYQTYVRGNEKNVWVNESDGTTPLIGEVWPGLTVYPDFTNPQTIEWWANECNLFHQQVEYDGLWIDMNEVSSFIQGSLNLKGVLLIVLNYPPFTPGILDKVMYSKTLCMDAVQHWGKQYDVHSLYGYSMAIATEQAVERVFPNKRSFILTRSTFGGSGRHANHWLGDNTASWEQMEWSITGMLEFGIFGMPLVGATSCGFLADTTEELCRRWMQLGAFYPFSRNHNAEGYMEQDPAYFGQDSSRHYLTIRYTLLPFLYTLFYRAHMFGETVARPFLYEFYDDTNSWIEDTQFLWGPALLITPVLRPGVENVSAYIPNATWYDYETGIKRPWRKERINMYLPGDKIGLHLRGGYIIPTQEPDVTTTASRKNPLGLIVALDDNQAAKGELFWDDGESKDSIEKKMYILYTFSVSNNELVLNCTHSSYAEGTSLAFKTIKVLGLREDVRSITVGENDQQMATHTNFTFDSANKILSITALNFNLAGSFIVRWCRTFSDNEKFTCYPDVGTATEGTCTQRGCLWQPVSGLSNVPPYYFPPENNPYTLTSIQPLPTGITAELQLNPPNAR
Chain of Sucrase-isomaltase, intestinal (Rattus norvegicus) (P23739 1014-1841 limits assumed): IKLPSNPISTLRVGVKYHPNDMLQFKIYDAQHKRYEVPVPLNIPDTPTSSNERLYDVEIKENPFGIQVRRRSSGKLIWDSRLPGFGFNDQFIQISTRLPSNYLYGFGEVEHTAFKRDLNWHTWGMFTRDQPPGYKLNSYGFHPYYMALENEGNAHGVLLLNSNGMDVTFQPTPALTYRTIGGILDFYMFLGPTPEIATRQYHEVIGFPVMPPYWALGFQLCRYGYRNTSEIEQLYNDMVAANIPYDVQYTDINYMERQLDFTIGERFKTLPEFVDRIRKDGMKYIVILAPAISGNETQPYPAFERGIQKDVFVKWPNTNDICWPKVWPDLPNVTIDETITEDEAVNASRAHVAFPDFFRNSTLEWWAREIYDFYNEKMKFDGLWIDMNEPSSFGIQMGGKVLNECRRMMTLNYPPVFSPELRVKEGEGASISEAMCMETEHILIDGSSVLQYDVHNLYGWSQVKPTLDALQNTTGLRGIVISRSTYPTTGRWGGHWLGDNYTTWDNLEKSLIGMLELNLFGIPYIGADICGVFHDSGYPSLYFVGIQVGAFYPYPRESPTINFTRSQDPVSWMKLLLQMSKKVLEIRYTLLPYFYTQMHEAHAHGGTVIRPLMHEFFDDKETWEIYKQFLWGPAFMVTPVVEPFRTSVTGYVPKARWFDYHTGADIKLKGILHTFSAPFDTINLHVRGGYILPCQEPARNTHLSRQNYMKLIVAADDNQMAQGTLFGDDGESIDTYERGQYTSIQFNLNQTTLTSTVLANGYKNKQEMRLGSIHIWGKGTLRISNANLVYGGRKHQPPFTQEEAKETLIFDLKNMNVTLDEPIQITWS
Chain of Sucrase-isomaltase, intestinal (P23739 1-1013 limits assumed): as the sequence (P23739 1-1013 limits assumed) above
Chain of Sucrase-isomaltase, intestinal (P23739 1014-1841 limits assumed): as the sequence (P23739 1014-1841 limits assumed) above

As usually defined, the IC50 is the concentration that gives 50% inhibition. High values mean a need for much substance, low ones inhibition by little substance. Usually Ki stands for a dissociation constant, usually derived from enzyme kinetics or from competition with a known ligand. A higher Ki goes with weaker binding. As to `C[C@H]1O[C@H](O[C@H]2[C@H](O)[C@@H](O)[C@@H](O[C@H]3[C@H](O)[C@@H](O)C(O)O[C@@H]3CO)O[C@@H]2CO)[C@H](O)[C@@H](O)[C@@H]1N[C@H]1C=C(CO)[C@@H](O)[C@H](O)[C@H]1O` (stereo partly drawn) [ACARBOSE], the values for the concentration for half-maximal inhibition (IC50) in assay [1] and in assay [4] were 0.48 mM and 1.5 µM, respectively. Also, the affinity in assay [2] corresponds to a Ki of 990 nM. The “competitive inhibition (Lineweaver-Burk)” value in the assay filed under Rattus norvegicus [3] is “Active”.

Broadly, the inhibition is the drop in the measured response relative to a control, in per cent. The low end stands for a response near the control, the high end for a response far below the control. As for `CCCCCCN(CCCCCC)[C@@H]1C[C@@H](O)[C@H](O)[C@@H](O)[C@H]1O`, the inhibition (in assay [5]; in the assay on Saccharomyces cerevisiae [6]) was under 30% throughout. In addition, it took 48 µM to reach half-maximal inhibition in [4] (IC50).

Regarding `CCCCN(CCCC)[C@H]1C[C@@H](O)[C@H](O)[C@@H](O)[C@H]1O`, the IC50 is 2.3 mM in assay [1], 36 µM in assay [7] and 24 µM in assay [4].

As for `CCCCCCCCCCCCN[C@H]1C[C@@H](O)[C@H](O)[C@@H](O)[C@H]1O`, the inhibition (in assay [5]; in the assay on Saccharomyces cerevisiae [6]) was under 30% in each case. In assay [4], this molecule had a concentration for half-maximal inhibition (IC50) of 1.9 µM.

The molecule `CCCCCCCCCCN[C@H]1C[C@@H](O)[C@H](O)[C@@H](O)[C@H]1O` had an inhibition in the assay on Saccharomyces cerevisiae [6] of under 30%. In addition, the figures for the half-maximal inhibitory concentration (IC50) in [7] and in [4] were 410 µM and 2 µM, respectively.

On to `CCN(CC)[C@H]1C[C@@H](O)[C@H](O)[C@@H](O)[C@H]1O`, for which the IC50 in [1] was 1.6 mM; in assay [7], 360 µM; in assay [4], 21 µM.

Consider `CCCCCCCCCC(=O)N[C@H]1C[C@@H](O)[C@H](O)[C@@H](O)[C@H]1O`, for which the inhibition (in assay [5]; with Saccharomyces cerevisiae [6]) was under 30% each time. In addition, the affinity in assay [2], expressed as Ki, was 1500 nM. For the same molecule, the “competitive inhibition (Lineweaver-Burk)” value in the assay listed under Rattus norvegicus [3] is “Active”. In assay [4], this molecule yielded a half-inhibitory concentration (IC50) of 2 µM.

Turning to `CCN(CC)[C@@H]1C[C@@H](O)[C@H](O)[C@@H](O)[C@H]1O`, the half-inhibitory concentration (IC50) was 1.6 mM in assay [1] and 5 µM in [4]. Further, the inhibition in [5] was under 30%. Moreover, the Ki in assay [2] stood at 3500 nM. For the same molecule, the “competitive inhibition (Lineweaver-Burk)” value in the assay filed under Rattus norvegicus [3] was “Active”.

Consider `CCCCCCN(CCCCCC)[C@H]1C[C@@H](O)[C@H](O)[C@@H](O)[C@H]1O`, for which, in the assay on Saccharomyces cerevisiae [6], the inhibition was under 30%. Also, the IC50 in assay [7] was found to be 120 µM; in assay [4], 32 µM.

On to `CCCCCCN[C@H]1C[C@@H](O)[C@H](O)[C@@H](O)[C@H]1O`, for which the inhibition (in assay [5]; in the assay with Saccharomyces cerevisiae [6]) was under 30% each time. This molecule displayed an IC50 in assay [4] of 2.5 µM.

With `CCCC(=O)N[C@@H]1C[C@@H](O)[C@H](O)[C@@H](O)[C@H]1O`, the IC50 turned out to be 1.2 mM in [1], 4.7 µM in [7] and 19 µM in [4].

Regarding `CCCCCCCCCC(=O)N[C@@H]1C[C@@H](O)[C@H](O)[C@@H](O)[C@H]1O`, the inhibition (in assay [5]; with Saccharomyces cerevisiae [6]) was under 30% in each case. Further, the IC50 in assay [4] is 3.5 µM.

Take `CCN[C@H]1C[C@@H](O)[C@H](O)[C@@H](O)[C@H]1O`: the inhibition in [5] is under 30%; with Saccharomyces cerevisiae [6] it was under 30%; in the assay filed under Rattus norvegicus [8], 30%.

Take `CC(=O)N[C@@H]1C[C@@H](O)[C@H](O)[C@@H](O)[C@H]1O`: the concentration for half-maximal inhibition (IC50) in [1] was 0.15 mM; in assay [7] it was 5.3 µM; in [4], 5.3 µM. In the assay on Saccharomyces cerevisiae [9], the Ratio IC50 was 3.

For `CCCCCCCCCCN[C@@H]1C[C@@H](O)[C@H](O)[C@@H](O)[C@H]1O`, the inhibition (in assay [5]; with Saccharomyces cerevisiae [6]) was under 30% each time. For the same molecule, in the assay listed under Rattus norvegicus [10], the Ratio IC50 was 3. 0.41 µM corresponded to half-maximal inhibition in assay [4] (IC50).

For `CCCCN[C@@H]1C[C@@H](O)[C@H](O)[C@@H](O)[C@H]1O`, the results for the IC50 in [1] and in assay [4] were 1.2 mM and 57 µM, respectively. For the same molecule, the inhibition in assay [5] was under 30%.

Consider `CCCCN[C@H]1C[C@@H](O)[C@H](O)[C@@H](O)[C@H]1O`, for which the inhibition (in assay [5]; in the assay with Saccharomyces cerevisiae [6]) was under 30% each time. Also, the IC50 in assay [4] amounted to 290 µM.

As for `CCCCN(CCCC)[C@@H]1C[C@@H](O)[C@H](O)[C@@H](O)[C@H]1O`, the half-maximal inhibitory concentration (IC50) in assay [1] worked out at 1.8 mM; in assay [4] it was 7.6 µM. In [5], the inhibition is under 30%.

In the case of `CCCCCCCCCCCC(=O)N[C@H]1C[C@@H](O)[C@H](O)[C@@H](O)[C@H]1O`, the inhibition (in [5]; in the assay on Saccharomyces cerevisiae [6]) was under 30% each time. In assay [4], this molecule had an IC50 of 10 µM.

For the molecule `CCCCCCCCCCCC(=O)N[C@@H]1C[C@@H](O)[C@H](O)[C@@H](O)[C@H]1O`, the inhibition (in assay [5]; in the assay with Saccharomyces cerevisiae [6]) was under 30% each time. Also, half-maximal inhibition in [4] (IC50) was put at 7.4 µM.

In the case of `CCCC(=O)N[C@H]1C[C@@H](O)[C@H](O)[C@@H](O)[C@H]1O`, the inhibition (in [5]; in the assay with Saccharomyces cerevisiae [6]) was under 30% each time. The molecule also had a half-inhibitory concentration (IC50) in assay [4] of 38 µM.

`CCCCCC(=O)N[C@H]1C[C@@H](O)[C@H](O)[C@@H](O)[C@H]1O`: the inhibition (in [5]; with Saccharomyces cerevisiae [6]) was under 30% each time. The molecule further yielded an IC50 in assay [4] of 4.2 µM.

With `CCCCCC(=O)N[C@@H]1C[C@@H](O)[C@H](O)[C@@H](O)[C@H]1O`, the 50% inhibitory concentration (IC50) in assay [1] worked out at 1.7 mM; in assay [7], 6.1 µM; in assay [4], 3.8 µM.

For the molecule `CCCCCCN[C@@H]1C[C@@H](O)[C@H](O)[C@@H](O)[C@H]1O`, the values for the 50% inhibitory concentration (IC50) in assay [1] and in assay [4] were 0.4 mM and 0.24 µM, respectively. In [5], the inhibition is under 30%. The same molecule showed an inhibitory constant (Ki) in [2] of 730 nM. In addition, the Ratio IC50 in the assay filed under Rattus norvegicus [10] was 3. Besides, in the assay listed under Rattus norvegicus [3], the “competitive inhibition (Lineweaver-Burk)” value was “Active”.

Take `CCCCCCCCCCCCN[C@@H]1C[C@@H](O)[C@H](O)[C@@H](O)[C@H]1O`: the inhibition (in [5]; with Saccharomyces cerevisiae [6]) was under 30% each time. This molecule registered a 50% inhibitory concentration (IC50) in assay [4] of 1.5 µM.

With `CC(=O)N[C@H]1C[C@@H](O)[C@H](O)[C@@H](O)[C@H]1O`, the IC50 in [1] came out at 0.27 mM; in [4] it was 180 µM. Also, in assay [5], the inhibition is under 30%.
